Measured values from PMC8064294 (Journal of medicinal chemistry, 2020).

Experiments:
[1] = biological target: T1, recombinant human ULK1 protein (1-649) (Homo sapiens, UniProt O75385); experiment: ULK1 ADP-Glo kinase assay; format: biochemical; conditions: for ULK1 ADP-Glo potency compared with compound 3: in words
T1 sequence (O75385 1-649): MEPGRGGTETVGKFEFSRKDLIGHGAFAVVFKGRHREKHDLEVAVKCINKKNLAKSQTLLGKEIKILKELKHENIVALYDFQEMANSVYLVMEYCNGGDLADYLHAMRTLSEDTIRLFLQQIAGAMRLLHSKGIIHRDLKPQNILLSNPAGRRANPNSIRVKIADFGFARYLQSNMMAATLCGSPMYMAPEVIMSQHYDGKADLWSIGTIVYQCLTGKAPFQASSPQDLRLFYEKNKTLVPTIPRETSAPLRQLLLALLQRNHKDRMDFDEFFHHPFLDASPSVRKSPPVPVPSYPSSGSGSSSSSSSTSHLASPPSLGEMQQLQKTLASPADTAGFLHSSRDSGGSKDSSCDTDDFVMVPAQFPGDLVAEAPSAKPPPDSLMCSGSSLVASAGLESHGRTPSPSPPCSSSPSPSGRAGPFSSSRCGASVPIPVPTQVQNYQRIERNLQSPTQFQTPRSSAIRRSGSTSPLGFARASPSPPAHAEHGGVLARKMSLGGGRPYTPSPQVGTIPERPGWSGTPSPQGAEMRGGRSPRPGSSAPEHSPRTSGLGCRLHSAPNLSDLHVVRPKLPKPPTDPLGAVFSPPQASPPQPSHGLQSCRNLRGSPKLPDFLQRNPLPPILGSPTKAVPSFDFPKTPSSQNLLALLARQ

[2] = biological target: T2, ULK1 (NanoLuc-ULK1 fusion) (Homo sapiens, UniProt O75385); experiment: ULK1 NanoBRET intracellular kinase target engagement assay in HEK293T cells; format: cell-based; conditions: HEK293T live cells
T2 sequence (O75385 1-1050): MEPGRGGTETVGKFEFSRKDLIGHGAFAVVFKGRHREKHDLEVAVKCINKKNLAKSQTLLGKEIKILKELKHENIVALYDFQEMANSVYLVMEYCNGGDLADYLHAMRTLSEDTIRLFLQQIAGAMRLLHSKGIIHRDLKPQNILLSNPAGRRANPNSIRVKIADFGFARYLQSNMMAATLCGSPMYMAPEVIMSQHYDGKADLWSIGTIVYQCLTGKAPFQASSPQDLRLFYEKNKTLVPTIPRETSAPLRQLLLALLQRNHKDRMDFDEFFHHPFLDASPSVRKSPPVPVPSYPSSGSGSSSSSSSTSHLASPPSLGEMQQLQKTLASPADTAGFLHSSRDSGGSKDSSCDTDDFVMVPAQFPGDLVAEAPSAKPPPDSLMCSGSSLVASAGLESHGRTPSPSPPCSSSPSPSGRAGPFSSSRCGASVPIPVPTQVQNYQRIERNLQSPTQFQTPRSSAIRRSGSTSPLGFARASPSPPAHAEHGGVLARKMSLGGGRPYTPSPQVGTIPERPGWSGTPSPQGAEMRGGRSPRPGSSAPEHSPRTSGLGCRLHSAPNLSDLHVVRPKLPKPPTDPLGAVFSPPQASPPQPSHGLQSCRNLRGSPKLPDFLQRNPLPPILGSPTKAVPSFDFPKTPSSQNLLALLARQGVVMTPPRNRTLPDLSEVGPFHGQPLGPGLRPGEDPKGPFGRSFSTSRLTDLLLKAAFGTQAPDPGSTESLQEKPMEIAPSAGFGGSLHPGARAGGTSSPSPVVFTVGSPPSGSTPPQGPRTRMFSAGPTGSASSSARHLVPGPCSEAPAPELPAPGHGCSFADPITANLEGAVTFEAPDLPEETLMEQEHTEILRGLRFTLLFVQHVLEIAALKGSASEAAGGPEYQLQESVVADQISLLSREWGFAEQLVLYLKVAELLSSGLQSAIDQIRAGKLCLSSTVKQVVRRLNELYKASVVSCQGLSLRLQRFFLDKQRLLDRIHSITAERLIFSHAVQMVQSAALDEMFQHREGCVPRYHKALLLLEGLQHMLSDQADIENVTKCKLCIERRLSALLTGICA

[3] = test system: autophagic flux in MDA-MB-468 cells expressing mCherry-EGFP-LC3; experiment: mCherry-GFP-LC3 FACS autophagic flux assay; format: cell-based, human; conditions: 48 h
[4] = test system: autophagosomes in MDA-MB-468 cells; experiment: TEM imaging of autophagosomes; format: cell-based, human; conditions: EBSS starved cells, 10 μM
[5] = PK study in mice, plasma concentration by LC-MS/MS; conditions: single oral dose 30 mg/kg
MDA-MB-468 cells = experiment: Combination dose-response matrix with PARP inhibitors, Combenefit Loewe model; format: cell-based, human; conditions: combination with niraparib; synergy at 26 0.19–1.7 μM and niraparib 3.8–7.5 μM
[6] = test system: pATG13 (Ser318), ATG13 and ULK1 in liver lysates; experiment: PD study, in vivo target engagement in mouse liver; conditions: mice, 10 mg/kg oral gavage, 2 h post dosing
[7] = mice, stated as noted previously, no data shown, cited from earlier work
Kinetic solubility = format: physicochemical

FC(F)(F)c1cnc(Nc2ccc3[nH]ccc3c2)nc1NC1CC1 [compound 8, N^4-Cyclopropyl-N^2-(1H-indol-5-yl)-5-(trifluoromethyl)-pyrimidine-2,4-diamine]
ULK1 ADP-Glo potency compared with compound 3 [1]: approximately equipotent with 3

Nc1ccc(Nc2ncc(C(F)(F)F)c(NC3CC3)n2)cc1 [compound 23, N^2-(4-Aminophenyl)-N^4-cyclopropyl-5-(trifluoro-methyl)-pyrimidine-2,4-diamine]
ULK1 NanoBRET IC50 (range in words) [2]: sub-micromolar range

FC(F)(F)c1cnc(Nc2ccc3nn[nH]c3c2)nc1NC1CC1 [compound 10, N^2-(1 H-Benzo[d][1,2,3]triazol-6-yl)-N^4-cyclopropyl-5-(trifluoromethyl)pyrimidine-2,4-diamine]
fold more potent than compound 3 in ULK1 ADP-Glo [1]: about 4 fold

COc1ccc(Nc2ncc(C(F)(F)F)c(NC3CC3)n2)cc1OC [compound 26, N^4-Cyclopropyl-N^2-(3,4-dimethoxyphenyl)-5-(trifluoromethyl)pyrimidine-2,4-diamine]
effect on olaparib-induced increase in autophagic flux ([3]; 10 μM with olaparib 30 μM): significantly suppressed the olaparib-induced increase in autophagic flux to a level similar to that observed in untreated control cells | number of autophagosomes by TEM [4]: decreased the number of autophagosomes to a greater extent than SBI-0206965 | Cmax relative to ULK1 NanoBRET IC50 [5]: about 3 fold | maximum synergy score (Loewe) (MDA-MB-468 cells): 26 | effect on pATG13 (Ser318) in liver [6]: robust inhibition of pATG13 (Ser318) | effect on total ATG13 and ULK1 levels in liver [6]: downregulation of total ATG13 and ULK1 levels | ULK1 NanoBRET IC50 (range in words) [2]: sub-micromolar range

CNC(=O)c1ccccc1Oc1nc(Nc2cc(OC)c(OC)c(OC)c2)ncc1Br [compound 1]
systemic exposure ([7]; ip dosing): poor systemic exposure | oral bioavailability [7]: no measurable oral bioavailability

FC(F)(F)c1cnc(Nc2ccc3ncoc3c2)nc1NC1CC1 [compound 15, N^2-(Benzo[d]oxazol-6-yl)-N^4-cyclopropyl-5-(trifluoromethyl)pyrimidine-2,4-diamine]
ULK1 ADP-Glo potency compared with compound 3 [1]: approximately equipotent with 3

O=C(c1cc(Cc2n[nH]c(=O)c3ccccc23)ccc1F)N1CCN(C(=O)C2CC2)CC1 [olaparib, reference compound]
increase in autophagic flux compared with control cells ([3]; 30 μM): approximately 30%

FC(F)(F)c1cnc(Nc2cnc3[nH]ccc3c2)nc1NC1CC1 [compound 11, N^4-Cyclopropyl-N^2-(1H-pyrrolo[2,3-b]pyridin-5-yl)-5-(trifluoromethyl)pyrimidine-2,4-diamine]
solubility in PBS (in words) (Kinetic solubility): limited solubility | ULK1 ADP-Glo potency compared with compound 3 [1]: approximately equipotent with 3

FC(F)(F)c1cnc(Nc2ccc3ncccc3c2)nc1NC1CC1 [compound 16, N^4-Cyclopropyl-N^2-(quinolin-6-yl)-5-(trifluoromethyl)-pyrimidine-2,4-diamine]
ULK1 NanoBRET IC50 (range in words) [2]: sub-micromolar range

O=C1CCCc2cc(Nc3ncc(C(F)(F)F)c(NC4CC4)n3)ccc21 [compound 19, 6-((4-(Cyclopropylamino)-5-(trifluoromethyl)pyrimidin-2-yl)amino)-3,4-dihydronaphthalen-1(2H)-one]
solubility in PBS (in words) (Kinetic solubility): limited solubility
